# Measurements published in patent publication EP4729529A1, “PREPARATION OF PEPTIDE INHIBITOR OF INTERLEUKIN-23 RECEPTOR AND USE THEREOF” (Xizang Haisco Pharmaceutical Co., Ltd., priority 2023, dated 2024).
# Starred links: 1 amine or outer side, 2 acyl side, 3 side chain; linkers in the order of their positions; H or OH if unused. Positions of bridges follow the written chain, without caps; N, C: chain ends. Non-standard residues stand in square brackets, D forms with d. Residues, ends and D or L forms follow the SMILES beside them. Phe(4-OC2H4NH2,2,3-(CH2)3) = NCCOc1ccc(C[C@H](N)C(=O)O)c2c1CCC2; Trp(7-cPr) = N[C@@H](Cc1c[nH]c2c(C3CC3)cccc12)C(=O)O; NH(CH2CH2O)4CH2CO = O=C(COCCOCCOCCOCCN[*:1])[*:2]; Trp(7-Me) = Cc1cccc2c(C[C@H](N)C(=O)O)c[nH]c12; 2Nal = N[C@@H](Cc1ccc2ccccc2c1)C(=O)O; X1 = O=C(C(N[*:1])C1(S[*:3])CC1)[*:2]; Thp(SO2) = NC1(C(=O)O)CCS(=O)(=O)CC1; AEF = NCCOc1ccc(C[C@H](N)C(=O)O)cc1; 3Pal = N[C@@H](Cc1cccnc1)C(=O)O; Cit = NC(=O)NCCC[C@H](N)C(=O)O; Pen = CC(C)(S)[C@H](N)C(=O)O; Thp = NC1(C(=O)O)CCOCC1; AEEA = NCCOCCOCC(=O)O; PEG1 = NCCOCCC(=O)O; Ahx = NCCCCCC(=O)O; Sar = CNCC(=O)O
# Legend:
# IL-23R = target: T1, IL-23R (Homo sapiens, UniProt Q5VWK5); assay: IL-23R reporter gene assay (HEK-blue IL23 reporter gene cell line, rhIL23 stimulation); assay type: cell-based; settings: Inhibition of IL-23R, rhIL23 1 ng/mL, 24 hours
# T1 construct: host or cells: HEK-blue IL23 reporter gene cell line
# T1 sequence (Q5VWK5 24-629): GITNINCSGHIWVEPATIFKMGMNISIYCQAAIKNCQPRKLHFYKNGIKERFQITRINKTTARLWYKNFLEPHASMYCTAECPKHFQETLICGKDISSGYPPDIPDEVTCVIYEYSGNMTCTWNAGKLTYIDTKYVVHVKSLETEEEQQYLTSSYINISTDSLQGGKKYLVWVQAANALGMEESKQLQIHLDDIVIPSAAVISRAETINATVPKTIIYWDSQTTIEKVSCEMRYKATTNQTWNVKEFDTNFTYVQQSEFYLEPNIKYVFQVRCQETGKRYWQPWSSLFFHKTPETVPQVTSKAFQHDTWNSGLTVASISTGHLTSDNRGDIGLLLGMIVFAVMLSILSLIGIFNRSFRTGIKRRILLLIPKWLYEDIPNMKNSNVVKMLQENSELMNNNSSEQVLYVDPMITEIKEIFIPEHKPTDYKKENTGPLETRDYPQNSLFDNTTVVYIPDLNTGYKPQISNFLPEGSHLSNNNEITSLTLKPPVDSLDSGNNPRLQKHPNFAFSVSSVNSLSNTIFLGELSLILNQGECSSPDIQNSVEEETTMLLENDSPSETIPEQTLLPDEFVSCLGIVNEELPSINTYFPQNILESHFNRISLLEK
# Experimental: 2. IL-23R reporter gene assay
# The purpose of this assay was to assess the ability of compounds to inhibit the binding of IL23p19 to IL23R in a reporter gene system. The HEK-blue IL23 reporter gene cell line (Invivogen, hkb-il23) was cultured in DMEM + 10% FBS + 100 ug/mL Normocin medium. When the cell density reached 80%-90%, 5000 cells/well were plated into a 384-well plate, and the plate was incubated overnight at 37°C with 5% CO2. Then, the compound stock solution was diluted in DMSO, and 40 nL of the dilution was transferred into the 384-well culture plate by Echo. The plate was incubated at 37°C with 5% CO2 for 0.5 hours. 40 nL/well of rhIL23 (R&D, 1290-IL) was added to the 384-well cell culture plate at a final concentration of 1 ng/mL, and the plate was incubated at 37°C with 5% CO2 for 24 hours. 18 µL of Quanti-Blue™ solution was added to a new 384-well plate. 2 µL/well of cell culture supernatant was transferred into the 384-well plate prepared in Step 6, and the plate was incubated at 37°C with 5% CO2 for 1 hour. Absorbance values at […] were read on BMG. The binding ability of the compounds was assessed using the following formula, and IC50 values were obtained by fitting with Graphpad.
# Calculation formula of inhibition rate: [formula] • where Data negative: mean of DMSO control group; and • Data positive: mean of non-IL23-stimulated group
# The calculation formula of IC50 was as follows: Y = Bottom + (Top−Bottom)/(1+10^(∧)((LogIC50−X)*HillSlope)) [formula] • where X: concentration of compound; and • Y: inhibition rate of compound Table 2. Inhibition of IL-23R by test compounds
# IL-23α/IL-12β and IL-23R = target: T2, IL-23α/IL-12β and IL-23R (Homo sapiens, UniProt Q5VWK5); assay: IL-23α/IL-12β and IL-23R binding assay (TR-FRET/HTRF); settings: inhibition of the binding of IL-23α/IL-12β to IL-23R, TR-FRET; both proteins 0.3 nM
# T2 construct: purchased ACRO ILR-H82F3 (IL-23R); ILB-H52W5 (IL-23α/IL-12β)
# T2 sequence (Q5VWK5 24-353 limits assumed): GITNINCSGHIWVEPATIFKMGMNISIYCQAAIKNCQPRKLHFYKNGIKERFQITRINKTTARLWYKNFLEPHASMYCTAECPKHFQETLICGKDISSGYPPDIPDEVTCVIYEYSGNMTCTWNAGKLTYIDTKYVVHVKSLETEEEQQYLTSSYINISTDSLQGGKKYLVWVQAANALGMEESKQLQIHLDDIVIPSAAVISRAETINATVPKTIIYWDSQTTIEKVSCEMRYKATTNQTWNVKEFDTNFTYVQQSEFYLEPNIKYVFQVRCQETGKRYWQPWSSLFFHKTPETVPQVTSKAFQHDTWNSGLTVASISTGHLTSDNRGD
# Experimental: 1. IL-23α/IL-12β and IL-23R binding assay
# Compounds were tested for their inhibition on the binding of IL-23α/IL-12β to IL-23R by the TR-FRET method. Solutions of proteins IL-23α/IL-12β (ACRO, Cat# ILB-H52W5) and IL-23R (ACRO, Cat# ILR-H82F3) were prepared in reaction buffer PPI (PerkinElmer, Cat# 61DB10RDF). The final concentrations of IL-23α/IL-12β and IL-23R in the reaction mixture were both 0.3 nM. Positive reference Guselkumab was 3-fold diluted from an initial concentration of 30 nM, with 10 doses. 0.1 µL of the positive reference diluted in the reaction buffer was delivered to a 384-well plate (Grenier, Cat# 784075) by the acoustic liquid delivery technique (Echo 655), and the plate was centrifuged at 1000 rpm for 1 minute. 2.5 µL of IL-23α/IL-12β solution was transferred into the 384-well reaction plate, and the plate was centrifuged at 1000 rpm for 1 minute, and incubated at 25°C for 60 minutes. 2.5 µL of IL-23R solution was transferred into the 384-well reaction plate, and the plate was centrifuged at 1000 rpm for 1 minute. 5 µL of Streptavidin-Tb cryptate and Anti 6HIS-d2 detection mixture was transferred into the 384-well reaction plate, and the plate was centrifuged at 1000 rpm for 1 minute, and incubated at 25°C for 60 minutes. Finally, the HTRF signal (Ratio 665/620 nm) was read with a BMG high-throughput drug screening multifunctional microplate reader. IC50 values were obtained by nonlinear regression curve fitting using GraphPad Prism software.
# [1] = Pharmacokinetic test in mice (intravenous and intragastric, plasma LC-MS/MS); assay type: in vivo; settings: male, mouse, Balb/c mice
# Experimental: 4. Pharmacokinetic test in mice
# 4.1. Experimental animals: Male Balb/c mice (20-25 g, 18 mice/compound) were purchased from Chengdu Dossy Experimental Animals Co., Ltd.
# 4.2. Experimental design: On the day of the experiment, the Balb/c mice were randomly grouped by body weight. The animals were fasted with water available for 12-14 h one day before the administration, and were fed 4 h after the administration. Table 4. Administration information
# Before and after administration, 0.06 mL of blood was taken from the orbit under isoflurane anaesthesia, and placed in an EDTAK2 centrifuge tube. The tube was centrifuged at 5000 rpm at 4°C for 10 min, and plasma was collected. The blood collection time points for the intravenous group and intragastric group were both 0 min, 5 min, 15 min, 30 min, 1 h, 2 h, 4 h, 6 h, 8 h, and 24 h. Before analysis and detection, all samples were stored at -80°C, and the samples were quantitatively analysed by LC-MS/MS. Table 5. Pharmacokinetic parameters of test compounds in mouse plasma
Compound,IC50 (IL-23R) [nM],IC50 (IL-23α/IL-12β and IL-23R) [nM],"AUC(0-t) ([1]; iv, i.v. (1 mg/kg)) [ng·h/mL]","clearance ([1]; iv, i.v. (1 mg/kg)) [mL/min/kg]","Vd ([1]; iv, i.v. (1 mg/kg), read-out: Vdss) [L/kg]","AUC(0-t) ([1]; po, i.g. (10 mg/kg)) [ng·h/mL]","bioavailability ([1]; po, i.g. (10 mg/kg)) [%]"
CC(=O)NCCCC[C@@H]1NC(=O)[C@H](Cc2c[nH]c3c(C)cccc23)NC(=O)[C@H]([C@@H](C)O)NC(=O)[C@H](CC(N)=O)NC(=O)[C@@H](NC(C)=O)C(C)(C)SSC(C)(C)[C@@H](C(=O)N[C@@H](Cc2ccc(OCCN)cc2)C(=O)N[C@@H](Cc2ccc3ccccc3c2)C(=O)NC2(C(=O)N[C@@H](CCC(=O)O)C(=O)N[C@@H](CC(N)=O)C(=O)N[C@@H](Cc3cccnc3)C(=O)N(C)CC(N)=O)CCS(=O)(=O)CC2)NC1=O [Compound 9],2.56,0.056,,,,,
CC(=O)NCCCC[C@@H]1NC(=O)[C@H](Cc2c[nH]c3c(C)cccc23)NC(=O)[C@H]([C@@H](C)O)NC(=O)[C@H](Cc2c[nH]cn2)NC(=O)[C@H]2NC(=O)CCCCCNC(=O)CC[C@@H](C(=O)N[C@@H](CC(N)=O)C(=O)N[C@@H](Cc3cccnc3)C(=O)N(C)CC(N)=O)NC(=O)C3(CCOCC3)NC(=O)[C@H](Cc3ccc4ccccc4c3)NC(=O)[C@H](Cc3ccc(OCCN)cc3)NC(=O)[C@@H](NC1=O)C(C)(C)SSC2(C)C [Compound 11] ([Ahx][Pen]HT[Trp(7-Me)]K(Ac)[Pen][AEF][2Nal][Thp]EN[3Pal][Sar]-NH2; disulfide 2-7; lactam N-11),7.47,0.124,,,,,
CC(=O)N[C@@H]1C(=O)N[C@@H](Cc2c[nH]cn2)C(=O)N[C@@H]([C@@H](C)O)C(=O)N[C@@H](Cc2c[nH]c3c(C4CC4)cccc23)C(=O)N[C@@H](CCCNC(N)=O)C(=O)N[C@H](C(=O)N[C@@H](Cc2ccc(OCCN)cc2)C(=O)N[C@@H](Cc2ccc3ccccc3c2)C(=O)NC2(C(=O)N[C@@H](CCC(=O)O)C(=O)N[C@@H](CC(N)=O)C(=O)N[C@@H](Cc3cccnc3)C(=O)N(C)CC(N)=O)CCOCC2)C(C)(C)SSC1(C)C [Compound 12] (Ac-[Pen]HT[Trp(7-cPr)][Cit][Pen][AEF][2Nal][Thp]EN[3Pal][Sar]-NH2; disulfide 1-6),3.58,0.0417,,,,,
"CC(=O)NC1C(=O)N[C@@H](Cc2c[nH]cn2)C(=O)N[C@@H]([C@@H](C)O)C(=O)N[C@@H](Cc2c[nH]c3c(C4CC4)cccc23)C(=O)N[C@@H](CCC(N)=O)C(=O)N[C@H](C(=O)N[C@@H](Cc2ccc(OCCN)c3c2CCC3)C(=O)N[C@@H](Cc2ccc3ccccc3c2)C(=O)NC2(C(=O)N[C@@H](CCC(=O)O)C(=O)N[C@@H](CC(N)=O)C(=O)N[C@@H](Cc3cccnc3)C(=O)N(C)CC(N)=O)CCS(=O)(=O)CC2)C(C)(C)SSC12CC2 (stereo partly shown) [Compound 24] (Ac-[X1]HT[Trp(7-cPr)]Q[Pen][Phe(4-OC2H4NH2,2,3-(CH2)3)][2Nal][Thp(SO2)]EN[3Pal][Sar]-NH2; disulfide 1-6)",9.38,0.063,6770 ± 183,2.42 ± 0.064,0.225 ± 0.017,227 ± 139,0.335 ± 0.2
CC(=O)NCCCC[C@@H]1NC(=O)[C@H](Cc2c[nH]c3c(C)cccc23)NC(=O)[C@H]([C@@H](C)O)NC(=O)[C@H](Cc2c[nH]cn2)NC(=O)[C@H]2NC(=O)COCCOCCNC(=O)CC[C@@H](C(=O)N[C@@H](CC(N)=O)C(=O)N[C@@H](Cc3cccnc3)C(=O)N(C)CC(N)=O)NC(=O)C3(CCOCC3)NC(=O)[C@H](Cc3ccc4ccccc4c3)NC(=O)[C@H](Cc3ccc(OCCN)cc3)NC(=O)[C@@H](NC1=O)C(C)(C)SSC2(C)C [Compound 27] ([AEEA][Pen]HT[Trp(7-Me)]K(Ac)[Pen][AEF][2Nal][Thp]EN[3Pal][Sar]-NH2; disulfide 2-7; lactam N-11),1.37,0.114,,,,,
CC(=O)NCCCC[C@@H]1NC(=O)[C@H](Cc2c[nH]c3c(C)cccc23)NC(=O)[C@H]([C@@H](C)O)NC(=O)[C@H](Cc2c[nH]cn2)NC(=O)[C@H]2NC(=O)CCOCCNC(=O)CC[C@@H](C(=O)N[C@@H](CC(N)=O)C(=O)N[C@@H](Cc3cccnc3)C(=O)N(C)CC(N)=O)NC(=O)C3(CCOCC3)NC(=O)[C@H](Cc3ccc4ccccc4c3)NC(=O)[C@H](Cc3ccc(OCCN)cc3)NC(=O)[C@@H](NC1=O)C(C)(C)SSC2(C)C [Compound 28] ([PEG1][Pen]HT[Trp(7-Me)]K(Ac)[Pen][AEF][2Nal][Thp]EN[3Pal][Sar]-NH2; disulfide 2-7; lactam N-11),6.27,0.122,,,,,
CC(=O)NCCCC[C@@H]1NC(=O)[C@H](Cc2c[nH]c3c(C)cccc23)NC(=O)[C@H]([C@@H](C)O)NC(=O)[C@H](Cc2c[nH]cn2)NC(=O)[C@H]2NC(=O)COCCOCCOCCOCCNC(=O)CC[C@@H](C(=O)N[C@@H](CC(N)=O)C(=O)N[C@@H](Cc3cccnc3)C(=O)N(C)CC(N)=O)NC(=O)C3(CCOCC3)NC(=O)[C@H](Cc3ccc4ccccc4c3)NC(=O)[C@H](Cc3ccc(OCCN)cc3)NC(=O)[C@@H](NC1=O)C(C)(C)SSC2(C)C [Compound 29] ([NH(CH2CH2O)4CH2CO][Pen]HT[Trp(7-Me)]K(Ac)[Pen][AEF][2Nal][Thp]EN[3Pal][Sar]-NH2; disulfide 2-7; lactam N-11),1.72,0.089,,,,,
